Biological target: PKR(wt) (Homo sapiens, UniProt P30613)
Assay: Luminescence Assay Protocol (Kinase Glo Plus), PKR(Wt/without FBP)
Assay type: biochemical
Details: without FBP; for activation at 1.54 µM: compound 1.54 μM, read-out: I - AC50 LUM KGP woFBP % Fold @ 1.54 μM mean; for AC50: gmean, read-out: G - AC50 LUM KGP woFBP AC50 μM gmean; for Emax: highest % fold increase at any concentration, read-out: H - AC50 LUM KGP woFBP MAX % FOLD mean
Method: Example 47: PKR(Wt/without FBP), PKR(G332S/with FBP), PKR(R510Q/without FBP)
The phosphorylation of Adenosine-5′-diphosphate (ADP) by various mutants of PKR was determined by the Kinase Glo Plus Assay (Promega) in the presence or absence of FBP [D-Fructose-1,6-diphosphate; BOC Sciences, CAS: 81028-91-3] as follows. Unless otherwise indicated, all reagents were purchased from Sigma-Aldrich. All reagents were prepared in buffer containing 50 mM Tris-HCl, 100 mM KCl, 5 mM MgCl2, and 0.01% Triton X100, 0.03% BSA, and 1 mM DTT. Enzyme and PEP [Phospho(enol) pyruvic acid] were added at 2× to all wells of an assay-ready plate containing serial dilutions of test compounds or DMSO vehicle. Final enzyme concentrations for PKR(wt), PKR(R510Q), and PKR(G332S) were 0.8 nM, 0.8 nM, and 10 nM respectively. Final PEP concentration was 100 μM. The Enzyme/PEP mixture was incubated with compounds for 30 minutes at RT before the assay was initiated with the addition of 2×ADP [Adenosine-5′-diphosphate] and KinaseGloPlus. Final concentration of ADP was 100 μM. […] For assays containing FBP, that reagent is added at 30 μM upon reaction initiation. Reactions were allowed to progress for 45 minutes at RT until luminescence was recorded by the BMG PHERAstar FS Multilabel Reader. All compounds were tested in triplicate at concentrations ranging from 42.5 μM to 2.2 nM in 0.83% DMSO.
Luminescence values were converted to % Fold increase by normalizing to the average of the DMSO control and multiplying by 100. Max, min, slope and AC50 were determined by the standard four parameter fit algorithm of ActivityBase XE Runner. Compounds were evaluated with three parameters—AC50, MAX % Fold, and % Fold@1.54 μM (FIG. 1). The AC50 value for a compound is the concentration […] corresponding to the midway between the maximum and minimum values of the four parameter logistic curve fit (i.e., at which the % fold increase along the four parameter logistic curve fit is halfway between MAX % Fold and MIN % Fold (% Fold Midpoint)), MAX % Fold is the highest fold increase observed at any concentration of compound, and % Fold@1.54 μM is the fold increase at a compound concentration of 1.54 μM. The parameter % Fold@1.54 μM was selected to capture elements of both the AC50 and MAX % Fold and to provide a ranking based on both potency and effect. The compound concentration of 1.54 μM was chosen as one that can optimally differentiate the set of compounds based on the range of activities observed.
As set forth in Tables 6 and 7 below, AC50 values (columns A, D, G) are defined as follows: ≤0.1 μM (+++); >0.1 μM and ≤1.0 μM (++); >1.0 μM and ≤40 μM (+); >40 μM (0). Max % FOLD values (columns B, E, H) are defined as follows: ≤75% (+); >75% and ≤250% (++); >250% and ≤500% (+++). % Fold@1.54 μM values (columns C, F, I) are defined as follows: ≤75% (+); >75% and ≤250% (++); >250% and ≤500% (+++).

PKR(wt), sequence (P30613 whole entry): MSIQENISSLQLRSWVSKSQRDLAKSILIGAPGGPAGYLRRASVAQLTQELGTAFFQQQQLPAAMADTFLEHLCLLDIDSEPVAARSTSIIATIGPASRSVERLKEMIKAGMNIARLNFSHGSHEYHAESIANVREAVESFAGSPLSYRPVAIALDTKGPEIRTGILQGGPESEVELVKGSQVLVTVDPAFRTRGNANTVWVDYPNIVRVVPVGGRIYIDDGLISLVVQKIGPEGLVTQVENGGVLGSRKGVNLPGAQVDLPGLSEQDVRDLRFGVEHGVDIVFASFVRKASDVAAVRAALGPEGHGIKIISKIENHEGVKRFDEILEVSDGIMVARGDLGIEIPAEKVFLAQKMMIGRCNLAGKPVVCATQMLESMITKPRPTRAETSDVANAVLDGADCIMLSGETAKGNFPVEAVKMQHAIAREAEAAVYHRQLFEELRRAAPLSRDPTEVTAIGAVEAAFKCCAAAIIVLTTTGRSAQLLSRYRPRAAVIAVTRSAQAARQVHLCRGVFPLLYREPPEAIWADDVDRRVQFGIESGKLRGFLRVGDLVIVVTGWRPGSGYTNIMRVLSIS

| SMILES | activation at 1.54 µM | AC50 | Emax |
| --- | --- | --- | --- |
| O=C(C(CO)c1ccccc1)N1CC2=C(C1)CN(S(=O)(=O)c1ccc3occc3c1)C2 (stereo not drawn) [Example 8, 1-(5-(benzofuran-5-ylsulfonyl)-3,4,5,6-tetrahydropyrrolo[3,4-c]pyrrol-2(1H)-yl)-3-hydroxy-2-phenylpropan-1-one] | 250 to 500% | ≤ 0.1 µM | 250 to 500% |
| COCC1(C(=O)N2CC3=C(C2)CN(S(=O)(=O)c2ccc4occc4c2)C3)CC1 [Example 17, (5-(benzofuran-5-ylsulfonyl)-3,4,5,6-tetrahydropyrrolo[3,4-c]pyrrol-2(1H)-yl)(1-(methoxymethyl)cyclopropyl)methanone] | 75 to 250% | 0.1 to 1 µM | 75 to 250% |
| Cc1nc2ccc(S(=O)(=O)N3CC4=C(CN(C(=O)C(C)(C)CO)C4)C3)cc2o1 [Example 21, 3-hydroxy-2,2-dimethyl-1-(5-((2-methylbenzo[d]oxazol-6-yl)sulfonyl)-3,4,5,6-tetrahydropyrrolo[3,4-c]pyrrol-2(1H)-yl)propan-1-one] | 75 to 250% | 1 to 40 µM | 75 to 250% |
| CCC(CO)(CO)C(=O)N1CC2=C(C1)CN(S(=O)(=O)c1ccc3occc3c1)C2 [Example 11, 1-(5-(benzofuran-5-ylsulfonyl)-3,4,5,6-tetrahydropyrrolo[3,4-c]pyrrol-2(1H)-yl)-2,2-bis(hydroxymethyl)butan-1-one] | 75 to 250% | 0.1 to 1 µM | 250 to 500% |
| O=C([C@H]1CCOC1)N1CC2=C(C1)CN(S(=O)(=O)c1ccc3occc3c1)C2 [Example 13, (S)-(5-(benzofuran-5-ylsulfonyl)-3,4,5,6-tetrahydropyrrolo[3,4-c]pyrrol-2(1H)-yl)(tetrahydrofuran-3-yl)methanone] | 75 to 250% | 0.1 to 1 µM | 250 to 500% |

Further lines, results first:

| activation at 1.54 µM | AC50 | Emax | SMILES |
| --- | --- | --- | --- |
| 75 to 250% | ≤ 0.1 µM | 75 to 250% | CC(C)(CO)C(=O)N1CC2=C(C1)CN(S(=O)(=O)c1ccc3occc3c1)C2 [Example 9, 1-(5-(benzofuran-5-ylsulfonyl)-3,4,5,6-tetrahydropyrrolo[3,4-c]pyrrol-2(1H)-yl)-3-hydroxy-2,2-dimethylpropan-1-one] |
| 75 to 250% | 0.1 to 1 µM | 250 to 500% | CC(C)(O)CC(=O)N1CC2=C(C1)CN(S(=O)(=O)c1ccc3occc3c1)C2 [Example 25, 1-(5-(benzofuran-5-ylsulfonyl)-3,4,5,6-tetrahydropyrrolo[3,4-c]pyrrol-2(1H)-yl)-3-hydroxy-3-methylbutan-1-one] |
| 75 to 250% | 0.1 to 1 µM | 250 to 500% | C[C@H](O)CC(=O)N1CC2=C(C1)CN(S(=O)(=O)c1ccc3occc3c1)C2 [Example 24, (S)-1-(5-(benzofuran-5-ylsulfonyl)-3,4,5,6-tetrahydropyrrolo[3,4-c]pyrrol-2(1H)-yl)-3-hydroxybutan-1-one] |
| 250 to 500% | 0.1 to 1 µM | 250 to 500% | C[C@@H](O)CC(=O)N1CC2=C(C1)CN(S(=O)(=O)c1ccc3occc3c1)C2 [Example 23, (R)-1-(5-(benzofuran-5-ylsulfonyl)-3,4,5,6-tetrahydropyrrolo[3,4-c]pyrrol-2(1H)-yl)-3-hydroxybutan-1-one] |
| 75 to 250% | ≤ 0.1 µM | 250 to 500% | CC(CO)(CO)C(=O)N1CC2=C(C1)CN(S(=O)(=O)c1ccc3occc3c1)C2 [Example 10, 1-(5-(benzofuran-5-ylsulfonyl)-3,4,5,6-tetrahydropyrrolo[3,4-c]pyrrol-2(1H)-yl)-3-hydroxy-2-(hydroxymethyl)-2-methylpropan-1-one] |
| 250 to 500% | 0.1 to 1 µM | 250 to 500% | O=C(CCO)N1CC2=C(C1)CN(S(=O)(=O)c1ccc3occc3c1)C2 [Example 22, 1-(5-(benzofuran-5-ylsulfonyl)-3,4,5,6-tetrahydropyrrolo[3,4-c]pyrrol-2(1H)-yl)-3-hydroxypropan-1-one] |

Source: patent US11649242B2, “Pyrrolopyrrole compositions as pyruvate kinase (PKR) activators” (FORMA Therapeutics, Inc., priority 2017, dated 2023)
